# Data reported in patent US20240262835A1, “PRMT5 INHIBITING COMPOUNDS AND USES THEREOF” (ANTENGENE DISCOVERY LIMITED, priority 2023, published 2024).
# pIC50: −log10 of the molar value. Read-outs that look alike come from different tables or passages of the source.
# How the values were obtained:
# PRMT5/MEP50 = PRMT5/MEP50 (Homo sapiens (Human), UniProt O14744); assay: MTase-Glo methyl transferase assay (PRMT5 inhibition); assay type: biochemical; settings: 50 nM PRMT5/MEP50, 25 μM SAM, 5 μM Histone H4 peptide (1-21), read-out: IC50 for PRMT5 inhibiting
# Experimental: The PRMT5 inhibitory activity of test compounds was determined using the MTase-Glo™ assay (Promega), which monitors the product (S-adenosyl homocysteine or SAH) of methyltransferase reactions. The PRMT5 MTase-Glo assays were conducted in a 384-well white ProxiPlate (PerkinElmer, catalog no.: 6008280) in a total volume of 12 μL. The PRMT5 enzymatic reaction (in 4 μL) contained 50 nM PRMT5/MEP50 (Reaction Biology Corp, catalog no.: HMT-22-148), 25 μM S-adenosyl methionine (SAM, Promega), 5 μM Histone H4 peptide (1-21) (BPS Bioscience, catalog no.: 52018-2) and five-fold serially diluted compounds in a reaction buffer of 50 mM Tris (pH 8.0), 50 mM NaCl, 0.01% Tween 20, 0.01% BSA, and 1 mM DTT. The test compounds were pre-incubated with PRMT5/MEP50 and Histone H4 peptide for 20 minutes at room temperature before the addition of SAM to initiate the PRMT5 reaction. The reaction was allowed to proceed for 1 hour at 37° C. and was terminated by 2 μL of 3× MTase-Glo™ Reagent (Promega) and 150 μM EPZ015666 (Selleck, catalog no.: 1616391-65-1). After a 30-minute incubation at room temperature, 6 μL of MTase-Glo™ Detection Solution (Promega) was added and the plate was incubated at room temperature for an additional 30 minutes. The light signal corresponding to the amount of SAH produced by the PRMT5 reaction was subsequently measured using an Envision multimode reader (PerkinElmer). IC50 and Ki values were obtained by analyzing dose-response curves using GraphPad Prism.
# PRMT5/MEP50 complex = PRMT5/MEP50 complex (Homo sapiens (Human), UniProt O14744); assay: PRMT5/MEP50 HotSpot methyltransferase assay (with 100 nM MTA); assay type: biochemical; settings: histone H2A substrate, 1 μM 3H-SAM
# Experimental: The assay used recombinant full-length histone H2A as the substrate of PRMT5. Enzymatic transfer of the tritiated methyl group from S-adenosyl-L-[methyl-3H]methionine (3H-SAM) to the histone H2A protein generated a radiolabeled histone H2A by measuring in a scintillation counter to determine the activity of PRMT5 enzyme in the presence and absence of compound. The assay reactions were conducted in the presence of 100 nM MTA. Briefly, compounds were solubilized in 100% DMSO at the highest concentration of 10 mM. […] Control samples lacking compound, PRTM5/MEP50 complex or various reaction components also were prepared and processed in parallel with compound test samples. SAH was used as a positive control for assay validation. To measure PRMT5 inhibitory activity, 1 nM PRTM5/MEP50 complex was preincubated with test compound in assay buffer containing 5 μM full-length histone H2A for 15 minutes at room temperature. The enzymatic reaction was initiated by adding 1 μM 3H-SAM (final concentration) and the mixture was incubated at 30° C. for 1 hour. The reaction was stopped and transferred to filter paper for detection. The amount of tritiated H2A in each sample was determined using a scintillation counter. The IC50 value for each compound was calculated from each 10-point dose-response curve for samples using GraphPad Prism software.
# [1] = tested on: HCT116 parental (wild type) cells; assay: HCT116 cell proliferation assay (CTG), parental cells; assay type: cell-based, human; settings: Cell Titer-Glo
# Experimental: (§1) Control samples were analyzed in parallel.
# (§2) On Day 0, 150 HCT116 parental or HCT116 homozygous MTAP knockout cells were seeded in 96-well plates in McCoy's 5A medium containing 10% fetal bovine serum and pen/strep. And the cells were incubated overnight at 37° C. and 5% CO2.
# (§3) On Day 1, cells were treated with 9-point serial dilution of compound, using a top concentration of 50 μM, 1:5 serial dilution steps and, a DMSO-only control. And cells were incubated for 6 days.
# (§4) On Day 7, cell viability was measured using a CTG assay Kit (Cell Titer-Glo; Promega, catalog no.: G7573) in accordance with the manufacturer's instructions. Assays plates were read on a EnVision™ Multilabel Reader using the Ultra-Sensitive luminescence model. The data were analyzed by GraphPad Prism 5.0 software, and the dose-effect curve was obtained by fitting the data using nonlinear S-curve regression, from which the IC50 value was calculated.
# [2] = tested on: HCT116 homozygous MTAP knockout cells; assay: HCT116 cell proliferation assay (CTG), MTAP knockout cells; assay type: cell-based, human; settings: Cell Titer-Glo
# Experimental: as §1, §2, §3, §4
# [3] = molecular target: hERG potassium ion channel (Homo sapiens (Human), UniProt Q12809); assay: hERG potassium ion channel inhibition assay (automated patch-clamp, CHO-hERG cells); assay type: cell-based; settings: Qpatch, highest test concentration 40.00 μM
# Experimental: Drug-hERG interaction was measured by automated patch-clamp methods, with cisapride as positive control.
# 1.1 CHO-hERG cells were cultured in 175 cm^2 culture bottle. After the cell density grew to 60-80%, the culture medium was removed, washed with 7 mL of phosphate buffered saline (PBS), and then digested with 3 mL Detachin.
# 1.2 After the digestion was complete, 7 mL culture solution was added for neutralization, and then centrifuged, the clear solution was sucked, and 5 mL culture solution was added for re-suspension to ensure the cell density was 2˜5×10^6/mL.
# The process of single-cell high-impedance sealing and whole-cell pattern formation was all automatically completed by Qpatch instrument. After obtaining whole-cell recording mode, the cell was pinching at −80 millivolts. Before giving a 5-second +40 millivolt depolarization stimulus, a 50-millisecond pre-voltage of −50 millivolts was given first, and then repolarized to −50 millivolts for 5 seconds. Go back to −80 millivolts. This voltage stimulation was applied every 15 seconds, recorded for 2 minutes, then extracellular fluid was given and recorded for 5 minutes, and then the administration process began. The concentration of test compound was given from the lowest test concentration for 2.5 minutes per test concentration. After continuous administration of all concentrations, the positive control 3 μM cisapride was given. At least 2 cells were tested for each concentration (n≥2).
# 4.1 The compound mother liquor was diluted with DMSO, and 10 μL compound stock solution was added to 20 μL DMSO solution, which was continuously 3-fold diluted to 6 DMSO-concentrations.
# 4.2 4 μL of test compounds in 6 DMSO-concentrations were added to 396 μL extracellular solution and were 100-fold diluted to 6 intermediate concentrations. Then, 80 μL of test compounds in 6 intermediate concentrations were added to 320 μL extracellular solution and were 5-fold diluted to the final concentration to be tested.
# 4.3 The highest test concentration was 40.00 μM, and six test concentrations were 40.00, 13.33, 4.44, 1.48, 0.49, 0.16 μM, respectively.
# 4.5 Entire dilution process for test compound preparation was performed by Bravo instrument.
# The experimental data were analyzed by GraphPad Prism 5.0 software.
# [4] = In vivo pharmacokinetics assay in mice via IV and PO; parameters: species or system ICR mice; settings: plasma; for Cmax: read-out: Cmax; for AUC0-t: read-out: AUC0-t
# Experimental: Pharmacokinetics assay for test compounds was performed in mice via IV and PO.
# Test compound solution was prepared on the day of administration.
# Solvent: IV+PO: 5% DMSO+10% Soultol+85% H2O or saline
# Species: ICR mice; SPF level.
# Source: Beijing Vital River Laboratory Animal Technology Co., Ltd.
# Animal selection: Males. No random grouping
# Weighed before dosing, calculated dosage according to body weight. For Groups 1-3, the drug was administered intravenously or intragastrically. For Group 4, the drug administered intragastrically.
# For Groups 1-3, at 0.083 h, 0.25 h, 0.5 h, 1 h, 2 h, 4 h, 6 h, 8 h, 24 h, after administration. For Group 4, at 2 h and 4 h after administration.
# Blood was collected through the cheeks. For each sample, about 0.05 mL of blood was collected and was added heparin sodium or EDTA-2K as anticoagulant, and was placed on wet ice.
# The blood samples were collected and placed on ice and was centrifuged within 1 hour (centrifugation: 6000 g, 3 minutes, 2-8° C.) to separate plasma. Plasma samples were stored in a −80° C. refrigerator prior to analysis.
# The pharmacokinetic parameters were calculated using Phoenix WinNonlin8.2.0 based on the blood concentration data at different time points, and AUC0-t, AUC0-∞, MRT0-∞, Cmax, Tmax, and T1/2 and mean values and standard deviations thereof were provided.
# in vitro [5] = settings: human, microsomes
# [6] = Liver microsome metabolic stability (LMS) assay, mouse; settings: mouse, liver microsomes
# [7] = Hepatic metabolic stability (HMS) assay, rat hepatocytes; settings: rat, cryopreserved hepatocytes
# Experimental: 1) 10 mM test compounds were provided.
# (§5) 2) 30 mM positive control stock solutions: Dissolved accurate amount of positive control compounds in dimethyl sulfoxide (DMSO).
# (§6) 3) 1000× Stock Solution: Diluted 10 mM test compounds and 30 mM positive control compounds to 1 mM and 3 mM with DMSO in 96-well plates.
# (§7) 4) 100× Dosing Solution: Diluted 1 mM test compounds and 3 mM positive control compounds to 100 μM and 300 μM dosing solutions with ACN.
# (§8) 5) Preparation of 0.5×10^6/mL cells suspension: cryopreserved cells were thawed, isolated and suspended in Incubation Medium, then diluted with pre-warmed Incubation Medium to 0.5×10^6 cells/mL.
# (§9) 6) Add 198 μL of pre-warmed cell suspensions in 96-well plates.
# (§10) 7) Preparation of Quenching Plate: Transfer 125 μL of stop solution in a set of pre-labeled 96-well plates.
# (§11) 8) Spike 2 μL dosing solution to each well of 96-well plates in duplicate.
# (§12) 9) For TO Samples, mix to achieve a homogenous suspension for about 1 min, then immediately transfer 25 μL of each sample into well containing 125 μL of ice-cold stop solution followed by mixing.
# (§13) 10) Incubate all plates at 37° C. in a 95% humidified incubator at 5% CO2 to start the reactions with constant shaking.
# (§14) 11) At 15, 30, 60 and 90 min, mix samples and then transfer 25 μL of each sample at each time point to well containing 125 μL of ice-cold stop solution followed by mixing.
# (§15) 12) Medium Control (MC) sample plates (labeled as TO-MC and T90-MC) are prepared in the same way as cell incubation except that medium was used instead of cell suspension.
# (§16) 13) At each corresponding time point, stop the reactions by removing the plates from incubator and mixing with 125 μL of ice-cold stop solution.
# (§17) 14) Vortex the plates immediately on a plate shaker at 600 rpm for 10 minutes. Then, centrifuge all sample plates at 3220×g for 20 min at 4° C.
# (§18) 15) After centrifugation, 80 μL/well of supernatant in the sample plates are transferred to another set of pre-labeled 96-well plates which containing 240 μL of ultra pure water according to the plate map.
# (§19) 16) Analytical plates are sealed and store at 4° C. until LC-MS/MS analysis.
# (§20) The remaining percents of test articles after incubation were calculated by the follow equations:
# (§21) Use the following equation of first order kinetics to calculate T1/2 and CLint:
# [8] = tested on: cryopreserved hepatocytes; assay: as above; settings: rat, hepatocytes
# Experimental: 1) 10 mM test compounds were provided.
# as §5, §6, §7, §8, §9, §10, §11, §12, §13, §14, §15, §16, §17, §18, §19, §20, §21
# [9] = Hepatic metabolic stability (HMS) assay, dog hepatocytes; settings: dog, cryopreserved hepatocytes
# [10] = tested on: cryopreserved hepatocytes; assay: as above; settings: dog, hepatocytes
# [11] = Hepatic metabolic stability (HMS) assay, human hepatocytes; settings: human, cryopreserved hepatocytes
# Experimental: 1) 10 mM test compounds were provided.
# as §5, §6, §7, §8, §9, §10, §11, §12, §13, §14, §15, §16, §17, §18, §19, §20, §21
# [12] = tested on: cryopreserved hepatocytes; assay: as above; settings: human, hepatocytes
# Experimental: 1) 10 mM test compounds were provided.
# as §5, §6, §7, §8, §9, §10, §11, §12, §13, §14, §15, §16, §17, §18, §19, §20, §21
# [13] = Hepatic metabolic stability (HMS) assay, mouse hepatocytes; settings: mouse, cryopreserved hepatocytes
# [14] = tested on: cryopreserved hepatocytes; assay: as above; settings: mouse, hepatocytes
# [15] = Hepatic metabolic stability (HMS) assay, cynomolgus monkey hepatocytes; settings: cynomolgus monkey, cryopreserved hepatocytes
# Experimental: 1) 10 mM test compounds were provided.
# as §5, §6, §7, §8, §9, §10, §11, §12, §13, §14, §15, §16, §17, §18, §19, §20, §21
# [16] = tested on: cryopreserved hepatocytes; assay: as above; settings: cynomolgus monkey, hepatocytes
# Experimental: 1) 10 mM test compounds were provided.
# as §5, §6, §7, §8, §9, §10, §11, §12, §13, §14, §15, §16, §17, §18, §19, §20, §21
# [17] = rat, microsomes, 1 μM
# in vitro [18] = settings: dog, microsomes
# in vitro [19] = settings: cynomolgus monkey, microsomes
# [20] = Liver microsome metabolic stability (LMS) assay, human; settings: human, microsomes
# [21] = Homo sapiens, HCT-116, 6 days treatment
# PRMT5/MEP50 complex, sequence (O14744 whole entry, species assumed): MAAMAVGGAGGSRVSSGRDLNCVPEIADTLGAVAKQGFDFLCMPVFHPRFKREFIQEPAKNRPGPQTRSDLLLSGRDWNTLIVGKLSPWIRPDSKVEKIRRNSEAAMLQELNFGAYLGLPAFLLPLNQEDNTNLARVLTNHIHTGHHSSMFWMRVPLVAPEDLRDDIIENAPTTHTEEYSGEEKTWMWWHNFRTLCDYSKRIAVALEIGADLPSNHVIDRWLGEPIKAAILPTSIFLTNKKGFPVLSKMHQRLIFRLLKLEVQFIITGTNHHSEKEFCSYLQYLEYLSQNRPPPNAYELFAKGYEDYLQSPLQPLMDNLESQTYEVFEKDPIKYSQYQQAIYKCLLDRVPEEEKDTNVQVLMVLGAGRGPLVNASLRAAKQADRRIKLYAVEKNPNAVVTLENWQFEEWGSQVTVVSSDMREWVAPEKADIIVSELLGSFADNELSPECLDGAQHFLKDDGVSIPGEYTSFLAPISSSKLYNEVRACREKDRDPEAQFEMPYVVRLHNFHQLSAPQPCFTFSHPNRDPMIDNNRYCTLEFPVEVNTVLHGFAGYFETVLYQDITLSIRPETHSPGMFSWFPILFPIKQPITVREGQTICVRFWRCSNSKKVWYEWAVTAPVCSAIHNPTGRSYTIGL
# PRMT5/MEP50 complex, sequence (Q9BQA1 whole entry partner, species assumed): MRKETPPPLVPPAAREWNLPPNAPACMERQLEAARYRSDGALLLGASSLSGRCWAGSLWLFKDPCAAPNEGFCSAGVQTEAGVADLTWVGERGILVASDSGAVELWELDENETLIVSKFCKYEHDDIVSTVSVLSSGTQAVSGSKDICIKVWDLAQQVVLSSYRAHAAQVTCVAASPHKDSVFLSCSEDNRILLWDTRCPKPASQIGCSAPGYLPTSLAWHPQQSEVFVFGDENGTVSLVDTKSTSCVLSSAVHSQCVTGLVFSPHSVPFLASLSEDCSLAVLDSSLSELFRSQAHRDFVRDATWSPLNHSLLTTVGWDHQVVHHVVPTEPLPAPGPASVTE
# PRMT5/MEP50, sequence (O14744 whole entry): as the sequence (O14744 whole entry, species assumed) above
# PRMT5/MEP50, sequence (Q9BQA1 whole entry partner): as the sequence (Q9BQA1 whole entry partner, species assumed) above
# hERG potassium ion channel, sequence (Q12809 whole entry): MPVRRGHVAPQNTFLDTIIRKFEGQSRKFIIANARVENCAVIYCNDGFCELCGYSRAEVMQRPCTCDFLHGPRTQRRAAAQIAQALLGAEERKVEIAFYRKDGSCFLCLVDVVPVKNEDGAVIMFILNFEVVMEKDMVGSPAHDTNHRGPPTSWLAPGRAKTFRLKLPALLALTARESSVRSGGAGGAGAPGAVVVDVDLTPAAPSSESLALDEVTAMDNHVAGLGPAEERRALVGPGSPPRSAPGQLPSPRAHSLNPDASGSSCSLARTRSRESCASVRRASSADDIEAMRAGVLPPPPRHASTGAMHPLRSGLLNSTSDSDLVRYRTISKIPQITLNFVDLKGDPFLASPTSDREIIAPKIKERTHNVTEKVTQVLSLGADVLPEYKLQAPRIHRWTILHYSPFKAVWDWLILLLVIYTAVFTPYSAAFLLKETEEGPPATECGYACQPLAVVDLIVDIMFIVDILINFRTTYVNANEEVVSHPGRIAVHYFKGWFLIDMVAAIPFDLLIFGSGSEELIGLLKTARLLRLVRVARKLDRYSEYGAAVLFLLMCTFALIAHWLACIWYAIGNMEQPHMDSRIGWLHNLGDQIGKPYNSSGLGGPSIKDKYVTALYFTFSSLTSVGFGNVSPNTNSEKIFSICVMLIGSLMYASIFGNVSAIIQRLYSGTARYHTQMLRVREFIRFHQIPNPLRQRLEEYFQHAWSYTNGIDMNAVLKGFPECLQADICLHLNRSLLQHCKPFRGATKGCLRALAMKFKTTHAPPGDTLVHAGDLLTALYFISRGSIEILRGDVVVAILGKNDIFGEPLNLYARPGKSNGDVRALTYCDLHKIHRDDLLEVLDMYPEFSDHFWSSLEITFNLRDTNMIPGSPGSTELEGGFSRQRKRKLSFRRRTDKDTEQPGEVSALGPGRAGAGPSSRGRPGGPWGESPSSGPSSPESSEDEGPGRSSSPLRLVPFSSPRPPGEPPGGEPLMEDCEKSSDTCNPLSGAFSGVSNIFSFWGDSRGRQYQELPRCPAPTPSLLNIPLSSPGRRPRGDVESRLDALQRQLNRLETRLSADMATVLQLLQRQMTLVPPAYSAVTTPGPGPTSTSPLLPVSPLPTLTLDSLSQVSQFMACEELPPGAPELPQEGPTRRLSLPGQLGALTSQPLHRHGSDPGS
compound,measurement,setting,value
Cc1ncc2c(N)nc3ccc(C(=O)N(Cc4ccc(C(F)(F)F)cn4)[C@H](C)c4ncccn4)cc3n12 [Compound 7],pIC50,PRMT5/MEP50,7.04
same,pIC50,PRMT5/MEP50 complex,7.04
same,pIC50,[1]; 6 days treatment,6.02
same,pIC50,[2]; 6 days treatment,7.11
Cc1ncn2c1c(N)nc1ccc(C(=O)N(Cc3ccc(C(F)(F)F)cn3)[C@H](C)c3ncccn3)cc12 [Compound 8],pIC50,PRMT5/MEP50,6.98
same,pIC50,PRMT5/MEP50 complex,6.70
same,pIC50,[1]; 6 days treatment,6.84
same,pIC50,[2]; 6 days treatment,7.01
Cc1nc(C)n2c1c(N)nc1ccc(C(=O)N(Cc3ccc(C(F)(F)F)cn3)[C@H](C)c3ncccn3)cc12 [Compound 9],pIC50,PRMT5/MEP50,7.00
same,pIC50,PRMT5/MEP50 complex,6.49
same,pIC50,[1]; 6 days treatment,5.94
same,pIC50,[2]; 6 days treatment,7.14
CN(C(=O)c1cc2c(cn1)nc(N)c1cncn12)[C@@H]1COc2cc(C(F)(F)F)ccc21 [Compound 14],pIC50,PRMT5/MEP50,7.33
same,pIC50,[1]; [21],5.20
same,pIC50,[2]; [21],7.15
same,pIC50,[3],4.75
same,C8 h,[4]; PO 30 mg/kg,3833 ng/mL
same,C24 h,[4]; PO 30 mg/kg,574 ng/mL
same,C8 h,[4]; PO 50 mg/kg,6927 ng/mL
same,C24 h,[4]; PO 50 mg/kg,615 ng/mL
same,Cmax,"[4]; male, ICR, mouse, PO 30 mg/kg",7500 ng/mL
same,Cmax,"[4]; male, ICR, mouse, PO 50 mg/kg",9920 ng/mL
same,clearance,"[4]; male, ICR, mouse, IV 1.0 mg/kg",7.62 mL/min/kg
same,half-life,"[4]; male, ICR, mouse, PO 30 mg/kg",358 min
same,AUC0-t,"[4]; male, ICR, mouse, PO 30 mg/kg",81.1 µg·h/mL
same,half-life,"[4]; male, ICR, mouse, PO 50 mg/kg",300 min
same,AUC0-t,"[4]; male, ICR, mouse, PO 50 mg/kg",123 µg·h/mL
same,half-life at 1 μM,in vitro [5],> 145 min
same,half-life at 1 μM,[6],132 min
"O=c1ccc2ccc(O)cc2o1 [Ref. 2, 7-Hydroxycoumarin, reference compound]",CLint scaled at 3 μM,[7],3170 mL/min/kg
same,half-life at 3 μM,[7],2 min
same,CLint (hep) R,[8],678.0 μL/min/10^6
same,CLint scaled at 3 μM,[9],3270 mL/min/kg
same,half-life at 3 μM,[9],2.9 min
same,CLint (hep) D,[10],475.1 μL/min/10^6
same,CLint scaled at 3 μM,[11],1020 mL/min/kg
same,half-life at 3 μM,[11],3 min
same,CLint (hep) H,[12],367.6 μL/min/10^6
same,CLint scaled at 3 μM,[13],7220 mL/min/kg
same,half-life at 3 μM,[13],2.3 min
same,CLint (hep) M,[14],608.1 μL/min/10^6
same,CLint scaled at 3 μM,[15],2360 mL/min/kg
same,half-life at 3 μM,[15],2.1 min
same,CLint (hep) C,[16],655.8 μL/min/10^6
"O=C(O)Cc1ccccc1Nc1c(Cl)cccc1Cl [Ref. 5, Diclofenac]",CLint (liver) R,[17],233.1 mL/min/kg
same,half-life at 1 μM,in vitro [5],6.7 min
same,microsomal CLint at 1 μM,in vitro [5],206 µL/min/mg
same,CLint scaled at 1 μM,in vitro [18],< 13.8 mL/min/kg
same,half-life at 1 μM,in vitro [18],> 145 min
same,microsomal CLint at 1 μM,in vitro [18],< 9.6 µL/min/mg
same,CLint scaled at 1 μM,in vitro [19],< 13 mL/min/kg
same,half-life at 1 μM,in vitro [19],> 145 min
same,microsomal CLint at 1 μM,in vitro [19],< 9.6 µL/min/mg
same,CLint scaled at 1 μM,[20],185 mL/min/kg
